Test results: the supplement of paper PMC10307832

Assays:
Test in all cases: relative viability (nuclei count vs DMSO), 5 days (fraction); higher = more cells survive
ChaGo-K-1 = test system: ChaGo-K-1
Summary of the method: (§1)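 After 5 days of treatment, lung cancer cells in 1536-well plates were fixed and stained in a single step (final 0.05% Triton X-100, 1% formaldehyde, 1 ug/ml Hoechst) and their nuclei counted on 4× images. Treatment had been applied by pin tool the day after seeding as one drug alone or as a fixed anchor-drug dose with five library-drug doses (not always all listed) in √10 steps. Relative viability is the nuclei count of treated wells divided by that of vehicle wells, and values are medians of duplicate plates.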

LXF-289 = test system: LXF-289
Summary of the method: as §1

NCI-H3122 = test system: NCI-H3122
Summary of the method: as §1

RERF-LC-KJ = test system: RERF-LC-KJ
Summary of the method: as §1

LCLC-103H = test system: LCLC-103H
Summary of the method: as §1

LOU-NH91 = test system: LOU-NH91
Summary of the method: as §1

HCC-78 = test system: HCC-78
Summary of the method: as §1

NCI-H322M = test system: NCI-H322M
Summary of the method: as §1

SK-LU-1 = test system: SK-LU-1
Summary of the method: as §1

LU99A = test system: LU99A
Summary of the method: as §1

NCI-H2085 = test system: NCI-H2085
Summary of the method: as §1

NCI-H2126 = test system: NCI-H2126
Summary of the method: as §1

NCI-H1666 = test system: NCI-H1666
Summary of the method: as §1

LK-2 = test system: LK-2
Summary of the method: as §1

NCI-H23 = test system: NCI-H23
Summary of the method: as §1

NCI-H1975 = test system: NCI-H1975
Summary of the method: as §1

SW 1573 = test system: SW 1573
Summary of the method: as §1

HCC-827 = test system: HCC-827
Summary of the method: as §1

SW 900 = test system: SW 900
Summary of the method: as §1

EMC-BAC-2 = test system: EMC-BAC-2
Summary of the method: as §1

EPLC-272H = test system: EPLC-272H
Summary of the method: as §1

NCI-H2405 = test system: NCI-H2405
Summary of the method: as §1

`O=C(O)c1ccc(-c2c[nH]c3ncc(-c4ccccc4)cc23)cc1C1CCCC1` + CC(=O)c1c(C)c2cnc(Nc3ccc(N4CCNCC4)cn3)nc2n(C2CCCC2)c1=O [Palbociclib] (partner 0.5 µM) showed a relative viability (ChaGo-K-1; first compound 0.04 µM) of 0.958, a relative viability (ChaGo-K-1; first compound 0.1265 µM) of 0.966 and a relative viability (ChaGo-K-1; first compound 0.4 µM) of 0.945. It also gave a relative viability (ChaGo-K-1; first compound 1.265 µM) of 0.834, a relative viability (LXF-289; first compound 0.04 µM) of 0.573 and a relative viability (LXF-289; first compound 0.1265 µM) of 0.584. It also gave a relative viability (LXF-289; first compound 0.4 µM) of 0.57, a relative viability (LXF-289; first compound 1.265 µM) of 0.521 and a relative viability (NCI-H3122; first compound 0.04 µM) of 0.201. It also gave a relative viability (NCI-H3122; first compound 0.1265 µM) of 0.175, a relative viability (NCI-H3122; first compound 0.4 µM) of 0.174 and a relative viability (NCI-H3122; first compound 1.265 µM) of 0.198. It also gave a relative viability (RERF-LC-KJ; first compound 0.04 µM) of 1.01, a relative viability (RERF-LC-KJ; first compound 0.1265 µM) of 1.02 and a relative viability (RERF-LC-KJ; first compound 0.4 µM) of 0.97. For the same compound, the relative viability (RERF-LC-KJ; first compound 1.265 µM) was 0.875, the relative viability (LCLC-103H; first compound 0.04 µM) was 0.412 and the relative viability (LCLC-103H; first compound 0.1265 µM) was 0.486. For the same compound, the relative viability (LCLC-103H; first compound 0.4 µM) was 0.465, the relative viability (LCLC-103H; first compound 1.265 µM) was 0.469 and the relative viability (LOU-NH91; first compound 0.04 µM) was 0.593. The relative viability (LOU-NH91; first compound 0.1265 µM) was 0.517, the relative viability (LOU-NH91; first compound 0.4 µM) was 0.525 and the relative viability (LOU-NH91; first compound 1.265 µM) was 0.469. For the same compound, the relative viability (HCC-78; first compound 0.04 µM) was 0.494, the relative viability (HCC-78; first compound 0.1265 µM) was 0.467 and the relative viability (HCC-78; first compound 0.4 µM) was 0.488. It also gave a relative viability (HCC-78; first compound 1.265 µM) of 0.435, a relative viability (NCI-H322M; first compound 0.04 µM) of 0.466 and a relative viability (NCI-H322M; first compound 0.1265 µM) of 0.461. The relative viability (NCI-H322M; first compound 0.4 µM) was 0.448, the relative viability (NCI-H322M; first compound 1.265 µM) was 0.461 and the relative viability (SK-LU-1; first compound 0.04 µM) was 0.358. For the same compound, the relative viability (SK-LU-1; first compound 0.1265 µM) was 0.381, the relative viability (SK-LU-1; first compound 0.4 µM) was 0.366 and the relative viability (SK-LU-1; first compound 1.265 µM) was 0.359. For the same compound, the relative viability (LU99A; first compound 0.04 µM) was 0.43, the relative viability (LU99A; first compound 0.1265 µM) was 0.439 and the relative viability (LU99A; first compound 0.4 µM) was 0.375. For the same compound, the relative viability (LU99A; first compound 1.265 µM) was 0.344, the relative viability (NCI-H2085; first compound 0.04 µM) was 0.448 and the relative viability (NCI-H2085; first compound 0.1265 µM) was 0.476. For the same compound, the relative viability (NCI-H2085; first compound 0.4 µM) was 0.457, the relative viability (NCI-H2085; first compound 1.265 µM) was 0.349 and the relative viability (NCI-H2126; first compound 0.04 µM) was 0.361. For the same compound, the relative viability (NCI-H2126; first compound 0.1265 µM) was 0.358, the relative viability (NCI-H2126; first compound 0.4 µM) was 0.369 and the relative viability (NCI-H2126; first compound 1.265 µM) was 0.345. The relative viability (NCI-H1666; first compound 0.04 µM) was 0.604, the relative viability (NCI-H1666; first compound 0.1265 µM) was 0.622 and the relative viability (NCI-H1666; first compound 0.4 µM) was 0.609. For the same compound, the relative viability (NCI-H1666; first compound 1.265 µM) was 0.547, the relative viability (LK-2; first compound 0.04 µM) was 0.826 and the relative viability (LK-2; first compound 0.1265 µM) was 0.768. It also gave a relative viability (LK-2; first compound 0.4 µM) of 0.771, a relative viability (LK-2; first compound 1.265 µM) of 0.646 and a relative viability (NCI-H23; first compound 0.04 µM) of 0.577. It also gave a relative viability (NCI-H23; first compound 0.1265 µM) of 0.491, a relative viability (NCI-H23; first compound 0.4 µM) of 0.483 and a relative viability (NCI-H23; first compound 1.265 µM) of 0.308. The relative viability (NCI-H1975; first compound 0.04 µM) was 0.588, the relative viability (NCI-H1975; first compound 0.1265 µM) was 0.55 and the relative viability (NCI-H1975; first compound 0.4 µM) was 0.585. For the same compound, the relative viability (NCI-H1975; first compound 1.265 µM) was 0.475, the relative viability (SW 1573; first compound 0.04 µM) was 0.442 and the relative viability (SW 1573; first compound 0.1265 µM) was 0.355. For the same compound, the relative viability (SW 1573; first compound 0.4 µM) was 0.309, the relative viability (SW 1573; first compound 1.265 µM) was 0.268 and the relative viability (HCC-827; first compound 0.04 µM) was 0.354. The relative viability (HCC-827; first compound 0.1265 µM) was 0.474, the relative viability (HCC-827; first compound 0.4 µM) was 0.434 and the relative viability (HCC-827; first compound 1.265 µM) was 0.328. For the same compound, the relative viability (SW 900; first compound 0.04 µM) was 0.523, the relative viability (SW 900; first compound 0.1265 µM) was 0.521 and the relative viability (SW 900; first compound 0.4 µM) was 0.578. The relative viability (SW 900; first compound 1.265 µM) was 0.277, the relative viability (EMC-BAC-2; first compound 0.04 µM) was 0.534 and the relative viability (EMC-BAC-2; first compound 0.1265 µM) was 0.544. For the same compound, the relative viability (EMC-BAC-2; first compound 0.4 µM) was 0.529, the relative viability (EMC-BAC-2; first compound 1.265 µM) was 0.519 and the relative viability (EPLC-272H; first compound 0.04 µM) was 0.337. The relative viability (EPLC-272H; first compound 0.1265 µM) was 0.332, the relative viability (EPLC-272H; first compound 0.4 µM) was 0.321 and the relative viability (EPLC-272H; first compound 1.265 µM) was 0.294. The relative viability (NCI-H2405; first compound 0.04 µM) was 0.529, the relative viability (NCI-H2405; first compound 0.1265 µM) was 0.557 and the relative viability (NCI-H2405; first compound 0.4 µM) was 0.517. The relative viability (NCI-H2405; first compound 1.265 µM) was 0.473.
